Experimental data taken from patent publication US20230081390A1, “INHIBITORS OF RAF KINASES” (Kinnate Biopharma Inc., priority 2019, published 2023).

target: human RAF1 (Homo sapiens, UniProt P04049); test: Protein kinase assay (33P-ATP filter binding), human RAF1, 10-dose IC50; format: biochemical; conditions: MEK1 (K97R) substrate 3 micromolar, ATP 10 micromolar, read-out: RAF-1 IC50
Procedure, shortened: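 Radiometric filter-binding format: 10 µM ATP, 3 µM MEK1 (K97R) as substrate for human RAF1, 2 hr at room temperature in 20 mM HEPES pH 7.5 with 10 mM MgCl2. Compounds were dispensed acoustically from DMSO. IC50 came from percent kinase activity relative to vehicle over a 10-dose series.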

Chain of human RAF1 (P04049 whole entry): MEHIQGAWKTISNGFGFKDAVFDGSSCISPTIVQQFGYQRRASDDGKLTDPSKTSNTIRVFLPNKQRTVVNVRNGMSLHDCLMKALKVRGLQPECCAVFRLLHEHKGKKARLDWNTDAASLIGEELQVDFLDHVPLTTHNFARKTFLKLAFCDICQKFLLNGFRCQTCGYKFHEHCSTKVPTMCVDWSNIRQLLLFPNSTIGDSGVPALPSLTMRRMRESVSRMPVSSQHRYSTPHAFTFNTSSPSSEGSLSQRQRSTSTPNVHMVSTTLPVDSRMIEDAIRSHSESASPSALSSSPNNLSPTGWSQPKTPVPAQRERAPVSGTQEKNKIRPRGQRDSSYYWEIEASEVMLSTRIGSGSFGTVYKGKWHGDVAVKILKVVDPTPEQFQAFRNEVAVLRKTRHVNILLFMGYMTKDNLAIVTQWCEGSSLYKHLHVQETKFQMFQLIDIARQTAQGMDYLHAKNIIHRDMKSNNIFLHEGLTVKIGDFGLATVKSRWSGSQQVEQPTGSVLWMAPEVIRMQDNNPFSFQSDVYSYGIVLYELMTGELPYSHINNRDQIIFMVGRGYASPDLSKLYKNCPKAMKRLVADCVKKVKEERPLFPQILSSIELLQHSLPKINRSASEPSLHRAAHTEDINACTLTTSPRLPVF

IC50, < 10 nM:
Cc1cc(F)c(NC(=O)N2CC3(C(F)(F)F)CC2CO3)cc1-c1cc(OCCO)nc(N2CCOCC2)c1 (centres unmarked) [Example 107, N-[2-fluoro-5-[2-(2-hydroxyethoxy)-6-(morpholin-4-yl)pyridin-4-yl]-4-methylphenyl]-1-(trifluoromethyl)-2-oxa-5-azabicyclo[2.2.1]heptane-5-carboxamide]
Cc1cc(F)c(NC(=O)N2CCCC3C2C3C(F)(F)F)cc1-c1cc(OCCO)nc(N2CCOCC2)c1 (single isomer, unassigned) [Example 109, N-[2-fluoro-5-[2-(2-hydroxyethoxy)-6-(morpholin-4-yl)pyridin-4-yl]-4-methylphenyl]-7-(trifluoromethyl)-2-azabicyclo[4.1.0]heptane-2-carboxamide]
Cc1ccc(NC(=O)N2CC[C@@H](CC(F)(F)F)C2)cc1-c1cc(OC[C@@H](C)O)nc(N2CCOC3CC32)c1 (stereo partly drawn) [Example 230, (3S)-N-(3-(2-(2-oxa-5-azabicyclo[4.1.0]heptan-5-yl)-6-((R)-2-hydroxypropoxy)pyridin-4-yl)-4-methylphenyl)-3-(2,2,2-trifluoroethyl)pyrrolidine-1-carboxamide]
Cc1ccc(NC(=O)N2CC[C@@H](CC(F)(F)F)C2)cc1-c1cnc(OC2CCOCC2)c(N2CCOCC2)c1 (single isomer, unassigned) [Example 193]
Cc1ccc(NC(=O)Nc2cnn(C(F)(F)F)c2)cc1-c1cc(OCCO)nc(N2CCOCC2)c1 [Example 125, 1-[3-[2-(2-hydroxyethoxy)-6-(morpholin-4-yl)pyridin-4-yl]-4-methylphenyl]-3-[1-(trifluoromethyl)pyrazol-4-yl]urea]
Cc1cc(F)c(NC(=O)NC(C)CC(F)(F)F)cc1-c1cc(OCCO)nc(N2CCOCC2)c1 (centres unmarked) [Example 57, 1-[2-fluoro-5-[2-(2-hydroxyethoxy)-6-(morpholin-4-yl)pyridin-4-yl]-4-methylphenyl]-3-(4,4,4-trifluorobutan-2-yl)urea]
Cc1cc(F)c(NC(=O)N2CCC3C2C3C(F)(F)F)cc1-c1cc(OCCO)nc(N2CCOCC2)c1 (single isomer, unassigned) [Example 68, N-[2-fluoro-5-[2-(2-hydroxyethoxy)-6-(morpholin-4-yl)pyridin-4-yl]-4-methylphenyl]-6-(trifluoromethyl)-2-azabicyclo[3.1.0]hexane-2-carboxamide]
Cc1cc(F)c(NC(=O)N2CC3CCC3(C(F)(F)F)C2)cc1-c1cc(OCCO)nc(N2CCOCC2)c1 (single isomer, unassigned) [Example 83, N-[2-fluoro-5-[2-(2-hydroxyethoxy)-6-(morpholin-4-yl)pyridin-4-yl]-4-methylphenyl]-1-(trifluoromethyl)-3-azabicyclo[3.2.0]heptane-3-carboxamide]
Cc1cc(F)c(NC(=O)N2C[C@H](N)C[C@H](C(F)(F)F)C2)cc1-c1cc(OCCO)nc(N2CCOCC2)c1 [Example 55, (3R,5S)-3-amino-N-[2-fluoro-5-[2-(2-hydroxyethoxy)-6-(morpholin-4-yl)pyridin-4-yl]-4-methylphenyl]-5-(trifluoromethyl)piperidine-1-carboxamide]
Cc1ccc(NC(=O)N2CC=C(CC(F)(F)F)C2)cc1-c1cc(OC[C@@H](C)O)nc(N2CCOCC2)c1 [Example 222, (R)-N-(3-(2-(2-hydroxypropoxy)-6-morpholinopyridin-4-yl)-4-methylphenyl)-3-(2,2,2-trifluoroethyl)-2,5-dihydro-1H-pyrrole-1-carboxamide]
Cc1cc(F)c(NC(=O)N2C[C@H]3C[C@@]3(C(F)(F)F)C2)cc1-c1cc(OCCO)nc(N2CCOCC2)c1 (single isomer, unassigned) [Example 51]
